# “Also recorded” adds a separate entry of the source.
# Experiments:
# [1] = tested on: CFPAC-1; test: Sensitivity of pancreatic adenocarcinoma cells to drug treatment (cell proliferation, apoptosis); assay type: cell-based, human; conditions: CFPAC-1 (CFPAC); vs untreated controls; FIG. 3B, 5
# Procedure: The culture media was changed every 48 hrs.
# (§1) Cells were pulsed with 10 μM BrdU for two hours and then harvested and fixed. BrdU incorporation was detected with a fluorescein isothiocyanate conjugated anti-BrdU antibody (BD Biosciences) and total DNA was stained with 7-AAD (BD Biosciences). FACS analysis was performed according to the BD Biosciences BrdU flow kit manual. Cells in S-phase were defined as the BrdU-positive cell population with a DNA content between 2N and 4N. According to the manual, apoptotic cells were defined as a subpopulation of G0/G1 cells with DNA content lower than the diploid amount (<2N).
# [2] = tested on: BxPC3; test: as above; assay type: cell-based, human; conditions: vs untreated controls, FIG. 3B
# Procedure: (§2) Human pancreatic adenocarcinoma cell lines HPAC, SW1990, Mpanc-96, SU86.86, PL45, Panc10.05 Panc2.03 and Panc8.13 were obtained from ATCC; cell lines MiaPaCa2, Panc1, CFPAC-1, HPAFII, Capan-2, AsPC1, Hs766T and BxPC3 were a gift from Schering Plough; cell lines COLO357, L3.3, L3.6 pl and L3.6 sl were a gift from I. Fidler; cell lines Panc3.27, Panc4.21, Panc5.04, Panc2.13, Panc1.28 and Panc6.03 were a gift from E. Jaffee. BxPC3 and the Panc cell lines were grown in RPMI medium (Gibco) supplemented with 10% FBS, L-glutamine and penicillin/streptomycin; medium for the Panc cells was also supplemented with insulin-transferrin-selenium (Gibco). The CFPAC-1, Panc1, AsPC1, Hs766T, L3.6sl and L3.6pl were grown in DMEM without phenol red (CellGro), supplemented with 10% FBS. Derivation and culture of PDC cells was as described (Schreiber et al., Gastroenterology, 127:250-260, 2004).
# (§3) The small chemical inhibitors were used at the following final concentrations: up to 250 μM for sulindac (Sigma), up to 300 μM for sulindac sulfone (Calbiochem or ICN), NS-398 up to 25 μM (Calbiochem), sodium salicylate up to 100 μM (Calbiochem). […] To test for drug sensitivity, the cells were plated in control medium or in medium containing the drug of interest for 2 to 5 days. The culture media was changed every 48 hrs. The images showing cell morphology were taken with a Nikon inverted microscope.
# as §1
# [3] = tested on: L3.6sl; test: as above; assay type: cell-based, human; conditions: vs untreated controls, FIG. 3B
# Procedure: as §2, §3, §1
# [4] = tested on: Panc4.21; test: as above; assay type: cell-based, human; conditions: vs untreated controls, FIG. 3B
# Procedure: as §2, §3, §1
# [5] = tested on: Panc1.28; test: Sensitivity of pancreatic adenocarcinoma cells to drug treatment (cell proliferation, survival); assay type: cell-based, human; conditions: FIG. 6
# Procedure: as §2, §3, §1
# [6] = tested on: Panc10.05; test: as above; assay type: cell-based, human; conditions: Panc 10.05; FIG. 6
# Procedure: as §2, §3, §1
# [7] = tested on: pancreatic adenocarcinoma cell lines; test: Growth, BrdU incorporation and apoptosis of pancreatic cancer cell lines (results stated for the lines together); assay type: cell-based, human; conditions: for pancreatic cancer cell growth or survival: drug treatment vs untreated control cells, NS-398 up to 25 μM, sodium salicylate up to 100 μM, sulindac sulfone up to 300 μM, FIG. 3B, 5B
# Procedure: as §3, §1
# (§4) The cell lines were plated the day prior to transfection at a density of 8×10^4 cells/well in a 24-well plate. The luciferase reporter constructs used included: Top-Flash and Fop-Flash containing multimerized Tcf-Lef binding sites or nonfunctional sites, respectively; TK-Luc (Promega); and GliBS containing 8×Gli binding sites upstream of the TK minimal promoter (Sasaki et al., Development, 124:1313-1322, 1997). In different experiments, the reporter constructs were co-transfected with an expression vector containing a dominant-negative form of Lef1 or the endogenous Wnt inhibitor Icat. The dominant negative Lef1 (gift from S. Pleasure) was generated by cloning the 63 amino acid N-terminal deleted form of Lef1 into the pEF5 plasmid. This construct also contains an IRES-EGFP cassette. The cDNA coding for the Icat protein was cloned into pIRES2-EGFP (BD Biosciences Clontech). Transfections were performed using the Effectene transfection reagent […] according to the user's manual. A Renilla luciferase plasmid (Promega) was included to control for transfection efficiency. Transfected cells were cultured in medium containing serum. […] Cells were harvested 24 hrs after transfection, and luciferase activity was assayed using the Dual Luciferase kit (Promega), according to the user's manual.
# Small interfering RNA (siRNA) oligonucleotides against β-catenin containing two thymidine residues (dTdT) at the 3′ end of the sequence (5′-[…] […] T-3′ set forth as SEQ ID NO:57) were used for treatment of cancer cells as described (Verma et al., Clin Cancer Res, 9:1291-1300, 2003). The GLI1 siRNA (sense 5′-[…] […]-3′ set forth as SEQ ID NO:58) was also used as described (Sanchez et al., Proc Natl Acad Sci USA 101:12561-12566, 2004). Small interfering RNA against GLI2 was ordered against the target sequence 5-[…] […] A-3′, set forth as SEQ ID NO:59). […] Cells were transfected with oligofectamine (Invitrogen) according to the user's manual, with a final siRNA concentration of 100 or 300 nM. Transfected cells were incubated for 48 hrs before harvesting.
# [8] = tested on: Wnt signaling (Top-Flash reporter); test: Fop/Top-Flash luciferase reporter assay; assay type: cell-based, human; conditions: for Top-Flash reporter activity (Wnt signaling): CFPAC-1, BxPC3, L3.6sl, Panc4.21, 24 hrs after transfection, sulindac 250 μM, sulindac sulfone 150 μM, cyclopamine 10 μM, or co-transfection
# Procedure: as §4
# For each Fop-luciferase or Top-luciferase experiment, a renilla luciferase construct was included. For each experimental condition (drug treatment, co-transfection or siRNA), triplicate Top- and Fop-luciferase samples were analyzed. To equilibrate the total vector-DNA (or siRNA) amount in all samples, equivalent amounts of an empty expression vector or unrelated siRNAs were transfected into control samples. The following equations were used to obtain the normalized luciferase values and the relative (fold) activation. The firefly luciferase (Fop and Top) values were divided by the renilla luciferase values to obtain the normalized luciferase values. The normalized Top values for each condition were divided by the Fop values of the same condition (e.g., untreated Top/untreated Fop; drug-treated Top/drug-treated Fop). […] To minimize the number of bars in each figure, only representative average Fop values are included in the graphs.
# [9] = tested on: BxPC3 tumors; test: Subcutaneous tumor treatment in nude mice; assay type: in vivo, CD-1 nude mice
# Procedure: (§5) A total of 0.1 ml Hanks' balanced salt solution and matrigel (1:1) containing 2×10^6 cells was injected subcutaneously into CD-1 nude mice (Charles River Laboratories). Tumors were grown for 4 days to a minimum volume of 125 mm^3. Treatment was initiated simultaneously for all subjects. Mice were injected with vector alone (peanut oil: PBS 7:3 v/v) or with a sulindac solution (3 mg/mouse/day) daily for 5 days. Sulindac sulfone was administered orally (1.5 mg/mouse/day). At the end of the treatment period, tumors were excised from mice, weighed and photographed.
# [10] = tested on: CFPAC-1 tumors; test: Subcutaneous tumor treatment in nude mice; assay type: in vivo, CD-1 nude mice; conditions: treated for five days vs controls, sulindac 3 mg/mouse/day injected, sulindac sulfone 1.5 mg/mouse/day orally
# Procedure: as §5
# [11] = tested on: L3.6sl tumors; test: Subcutaneous tumor treatment in nude mice; assay type: in vivo, CD-1 nude mice
# Procedure: as §5
# Individual or combined treatment was initiated after tumors were palpable.
# [12] = Solubility; assay type: physicochemical; conditions: required oral application
# [13] = tested on: Hedgehog signaling (GliBS-luc reporter); test: GliBS-luciferase reporter assay; assay type: cell-based, human; conditions: BxPC3 cells; cyclopamine 10 μM
# Procedure: The cell lines were plated the day prior to transfection at a density of 8×10^4 cells/well in a 24-well plate. The luciferase reporter constructs used included: Top-Flash and Fop-Flash containing multimerized Tcf-Lef binding sites or nonfunctional sites, respectively; TK-Luc (Promega); and GliBS containing 8×Gli binding sites upstream of the TK minimal promoter (Sasaki et al., Development, 124:1313-1322, 1997). In different experiments, the reporter constructs were co-transfected with an expression vector containing a dominant-negative form of Lef1 or the endogenous Wnt inhibitor Icat. The dominant negative Lef1 (gift from S. Pleasure) was generated by cloning the 63 amino acid N-terminal deleted form of Lef1 into the pEF5 plasmid. This construct also contains an IRES-EGFP cassette. The cDNA coding for the Icat protein was cloned into pIRES2-EGFP (BD Biosciences Clontech). Transfections were performed using the Effectene transfection reagent […] according to the user's manual. A Renilla luciferase plasmid (Promega) was included to control for transfection efficiency. Transfected cells were cultured in medium containing serum. […] Cells were harvested 24 hrs after transfection, and luciferase activity was assayed using the Dual Luciferase kit (Promega), according to the user's manual. […]
# [14] = tested on: Tcf4; test: Immunofluorescence of Tcf expression in pancreatic cancer cells; assay type: cell-based, human; conditions: cyclopamine for 24 hrs (FIG. 4C) or sulindac-treated
# [15] = tested on: Tcf1; test: as above; assay type: cell-based, human; conditions: pancreatic cancer cells (Panc4.21); cyclopamine for 24 hrs (FIG. 4C) or sulindac-treated
# [16] = sulindac sulfone orally 1.5 mg/mouse/day, five days
# [17] = treated for five days vs untreated controls, sulindac 3 mg/mouse/day injected, sulindac sulfone 1.5 mg/mouse/day orally
compound,measurement,setting,value
CC1=C(CC(=O)O)c2cc(F)ccc2/C1=C\c1ccc(S(C)(=O)=O)cc1 [sulindac sulfone],"cell growth (proliferation, apoptosis)",[1],only mildly affected; also recorded: diminishes growth
same,cell growth,[2],strongly inhibits growth
same,cell growth,[3],strongly inhibits growth
same,cell growth,[4],strongly inhibits growth
same,sensitivity / survival (phase contrast images),[5],not sensitive
same,sensitivity / survival (phase contrast images),[6],not sensitive
same,cell proliferation as measured by BrdU incorporation,"[7]; 75 μM sulindac sulfone, 5 μM cyclopamine or both, FIG. 4H",inhibits cell proliferation
same,pancreatic cancer cell growth or survival,[7],blocked Wnt signaling and cell survival
same,Top-Flash reporter activity (Wnt signaling),[8],inhibit Wnt activity; also recorded: generally more effective than sulindac in blocking Wnt signaling
same,Top-Flash reporter activity (Wnt signaling),[8]; listed as Sulindac sulfone,blocked Wnt signaling
same,reduction of tumor mass,[9]; [16],60%
same,tumor growth,[9]; [17],reduced
same,"tumor growth (volume, size)",[10],largely unaffected
same,reduction of tumor mass,[11]; [16],50%
same,tumor growth,[11]; [17],reduced
same,solubility,[12],limited solubility
CS(=O)(=O)Nc1ccc([N+](=O)[O-])cc1OC1CCCCC1 [NS-398],pancreatic cancer cell growth or survival,[7],Neither NS-398 (blocks COX-2 activity) nor salicylate (blocks COX-2 transcription) showed any measurable effect
same,pancreatic cancer cell growth or survival,[7]; listed as NS398,comparable growth to untreated control cells
"CC1=C2C[C@H]3[C@@H](CC=C4C[C@@H](O)CC[C@@]43C)[C@@H]2CC[C@]12O[C@@H]1C[C@H](C)CN[C@H]1[C@H]2C [cyclopamine, 11-deoxojervine]",sensitivity / survival (phase contrast images),[5],not sensitive
same,sensitivity / survival (phase contrast images),[6],not sensitive
same,reduction of Wnt signaling,"[8]; BxPC3 cells, cyclopamine 10 μM",~23%
same,reduction of Hedgehog signaling,[13],17%
same,Tcf4 expression,[14],efficiently abolished
same,Tcf4 expression,[14]; listed as Cyclopamine,inhibits Tcf4 and Tcf1 expression
same,Tcf1 expression,[15],inhibits Tcf4 and Tcf1 expression; also recorded: reduce expression
O=C([O-])c1ccccc1O.[Na+] [sodium salicylate],pancreatic cancer cell growth or survival,[7],comparable growth to untreated control cells
same,pancreatic cancer cell growth or survival,[7]; listed as salicylate,Neither NS-398 (blocks COX-2 activity) nor salicylate (blocks COX-2 transcription) showed any measurable effect
ICAT: endogenous Wnt inhibitor; cDNA cloned into pIRES2-EGFP expression vector and transfected,cell proliferation (BrdU incorporation) after transfection,"[7]; four pancreatic cancer cell lines, 48 hours after transfection, siRNA 100 nM or 300 nM, FIG. 2C, 2D",strongly inhibits growth; also recorded: significantly reduced
same,Top-Flash reporter activity (Wnt signaling),[8],reduction of Top-Flash activity

# From patent US20090012018A1, “Inhibition of pancretic cancer cell growth” (priority 2004, published 2009)
